Target: T1, Sphingosine kinase 1 (SK1) (Homo sapiens, UniProt Q9NYA1)
T1 construct: gene SPHK1
Assay: recombinant SK1 luminescent ATP-detection kinase activity assay (Echelon kit)
Assay type: biochemical

T1 sequence (Q9NYA1 whole entry): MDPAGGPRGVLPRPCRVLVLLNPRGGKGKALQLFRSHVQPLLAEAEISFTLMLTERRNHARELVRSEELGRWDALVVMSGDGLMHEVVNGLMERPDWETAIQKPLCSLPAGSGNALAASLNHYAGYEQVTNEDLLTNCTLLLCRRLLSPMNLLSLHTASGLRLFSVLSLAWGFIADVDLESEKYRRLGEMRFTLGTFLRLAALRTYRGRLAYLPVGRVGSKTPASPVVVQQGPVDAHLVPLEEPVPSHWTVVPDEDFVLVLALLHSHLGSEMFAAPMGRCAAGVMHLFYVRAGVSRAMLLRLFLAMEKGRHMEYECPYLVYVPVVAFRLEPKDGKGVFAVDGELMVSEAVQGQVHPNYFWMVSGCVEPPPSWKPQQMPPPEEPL

CC1=CC(C)=[N+]2C1=C(c1ccc(-c3cn(Cc4cc(C)cc(OCc5ccc(CN6CCC[C@@H]6CO)cc5)c4)nn3)cc1)c1c(C)cc(C)n1[B-]2(F)F [compound 2, (R)-(1-(4-((3-((4-(4-(5,5-Difluoro-1,3,7,9-tetramethyl-5H-4l4,5l4-dipyrrolo[1,2-c:2’,1’-f][1,3,2]diazaborinin-10-yl)phenyl)-1H-1,2,3-triazol-1-yl)methyl)-5-methylphenoxy)methyl)benzyl)pyrrolidin-2-yl)methanol]
IC50: 19.9 nM

— paper PMC6930633, “Synthesis and Biological Evaluation of BODIPY-PF-543” (Molecules, 2019)
